Measured values taken from the NIST ThermoML archive (doi:10.1016/j.jct.2016.09.030).

Test: xn = mol fraction of the nth substance listed
Conditions: 100 kPa, Liquid; for viscosity: Concentric cylinders viscometry; for mass density: Vibrating tube method

CCCCCCCC(=O)OCC [ethyl octanoate] + CC(C)CCO
Conditions	mass density [kg/m3]	viscosity [mPa·s]
288.15 K, x1 = 0.1	822.09	3.559
288.15 K, x1 = 0.2001	830.4	2.806
288.15 K, x1 = 0.3	837.58	2.382
288.15 K, x1 = 0.4	843.9	2.117
288.15 K, x1 = 0.5001	849.54	1.951
288.15 K, x1 = 0.5999	854.63	1.856
288.15 K, x1 = 0.7003	859.29	1.759
288.15 K, x1 = 0.7998	863.5	1.716
288.15 K, x1 = 0.9001	867.37	1.687
288.15 K, x1 = 1	870.88	1.686
293.15 K, x1 = 0.1	818.23	3.06
293.15 K, x1 = 0.2001	826.44	2.439
293.15 K, x1 = 0.3	833.53	2.11
293.15 K, x1 = 0.4	839.78	1.891
293.15 K, x1 = 0.5001	845.38	1.752
293.15 K, x1 = 0.5999	850.42	1.673
293.15 K, x1 = 0.7003	855.04	1.593
293.15 K, x1 = 0.7998	859.23	1.557
293.15 K, x1 = 0.9001	863.07	1.534
293.15 K, x1 = 1	866.58	1.537
298.15 K, x1 = 0.1	814.36	2.684
298.15 K, x1 = 0.2001	822.46	2.177
298.15 K, x1 = 0.3	829.47	1.885
298.15 K, x1 = 0.4	835.66	1.702
298.15 K, x1 = 0.5001	841.2	1.586
298.15 K, x1 = 0.5999	846.2	1.518
298.15 K, x1 = 0.7003	850.78	1.451
298.15 K, x1 = 0.7998	854.94	1.422
298.15 K, x1 = 0.9001	858.77	1.404
298.15 K, x1 = 1	862.28	1.41
303.15 K, x1 = 0.1	810.47	2.351
303.15 K, x1 = 0.2001	818.46	1.936
303.15 K, x1 = 0.3	825.39	1.693
303.15 K, x1 = 0.4	831.52	1.537
303.15 K, x1 = 0.5001	837.01	1.44
303.15 K, x1 = 0.5999	841.96	1.385
303.15 K, x1 = 0.7003	846.52	1.327
303.15 K, x1 = 0.7998	850.66	1.305
303.15 K, x1 = 0.9001	854.47	1.292
303.15 K, x1 = 1	857.98	1.298
308.15 K, x1 = 0.1	806.56	2.077
308.15 K, x1 = 0.2001	814.45	1.73
308.15 K, x1 = 0.3	821.3	1.527
308.15 K, x1 = 0.4	827.36	1.398
308.15 K, x1 = 0.5001	832.81	1.315
308.15 K, x1 = 0.5999	837.72	1.267
308.15 K, x1 = 0.7003	842.25	1.221
308.15 K, x1 = 0.7998	846.36	1.202
308.15 K, x1 = 0.9001	850.16	1.195
308.15 K, x1 = 1	853.68	1.2
313.15 K, x1 = 0.1	802.62	1.845
313.15 K, x1 = 0.2001	810.42	1.559
313.15 K, x1 = 0.3	817.19	1.389
313.15 K, x1 = 0.4	823.19	1.281
313.15 K, x1 = 0.5001	828.58	1.211
313.15 K, x1 = 0.5999	833.46	1.17
313.15 K, x1 = 0.7003	837.96	1.132
313.15 K, x1 = 0.7998	842.05	1.116
313.15 K, x1 = 0.9001	845.85	1.112
313.15 K, x1 = 1	849.37	1.118
318.15 K, x1 = 0.1	798.65	1.639
318.15 K, x1 = 0.2001	806.35	1.401
318.15 K, x1 = 0.3	813.06	1.258
318.15 K, x1 = 0.4	819	1.167
318.15 K, x1 = 0.5001	824.35	1.108
318.15 K, x1 = 0.5999	829.19	1.074
318.15 K, x1 = 0.7003	833.67	1.042
318.15 K, x1 = 0.7998	837.74	1.03
318.15 K, x1 = 0.9001	841.53	1.028
318.15 K, x1 = 1	845.06	1.035
323.15 K, x1 = 0.1	794.65	1.48
323.15 K, x1 = 0.2001	802.26	1.281
323.15 K, x1 = 0.3	808.9	1.157
323.15 K, x1 = 0.4	814.79	1.078
323.15 K, x1 = 0.5001	820.1	1.028
323.15 K, x1 = 0.5999	824.91	0.9986
323.15 K, x1 = 0.7003	829.36	0.9718
323.15 K, x1 = 0.7998	833.43	0.9628
323.15 K, x1 = 0.9001	837.21	0.9653
323.15 K, x1 = 1	840.74	0.9708

CCCCCCCC(=O)OCC [ethyl octanoate] + CC(C)CO
Conditions	mass density [kg/m3]	viscosity [mPa·s]
288.15 K, x1 = 0.1001	817.82	3.229
288.15 K, x1 = 0.1999	827.81	2.537
288.15 K, x1 = 0.3	836.01	2.169
288.15 K, x1 = 0.4	843.08	1.977
288.15 K, x1 = 0.5	849.18	1.851
288.15 K, x1 = 0.5999	854.5	1.766
288.15 K, x1 = 0.6999	859.21	1.703
288.15 K, x1 = 0.7999	863.44	1.677
288.15 K, x1 = 0.9	867.3	1.677
288.15 K, x1 = 1	870.88	1.686
293.15 K, x1 = 0.1001	813.83	2.762
293.15 K, x1 = 0.1999	823.71	2.22
293.15 K, x1 = 0.3	831.83	1.921
293.15 K, x1 = 0.4	838.85	1.768
293.15 K, x1 = 0.5	844.91	1.661
293.15 K, x1 = 0.5999	850.21	1.593
293.15 K, x1 = 0.6999	854.9	1.543
293.15 K, x1 = 0.7999	859.12	1.523
293.15 K, x1 = 0.9	862.98	1.524
293.15 K, x1 = 1	866.58	1.537
298.15 K, x1 = 0.1001	809.81	2.416
298.15 K, x1 = 0.1999	819.58	1.961
298.15 K, x1 = 0.3	827.63	1.716
298.15 K, x1 = 0.4	834.6	1.592
298.15 K, x1 = 0.5	840.63	1.503
298.15 K, x1 = 0.5999	845.9	1.447
298.15 K, x1 = 0.6999	850.58	1.407
298.15 K, x1 = 0.7999	854.81	1.393
298.15 K, x1 = 0.9	858.67	1.393
298.15 K, x1 = 1	862.28	1.41
303.15 K, x1 = 0.1001	805.76	2.111
303.15 K, x1 = 0.1999	815.43	1.74
303.15 K, x1 = 0.3	823.41	1.541
303.15 K, x1 = 0.4	830.32	1.44
303.15 K, x1 = 0.5	836.32	1.364
303.15 K, x1 = 0.5999	841.57	1.321
303.15 K, x1 = 0.6999	846.25	1.289
303.15 K, x1 = 0.7999	850.48	1.278
303.15 K, x1 = 0.9	854.35	1.283
303.15 K, x1 = 1	857.98	1.298
308.15 K, x1 = 0.1001	801.68	1.854
308.15 K, x1 = 0.1999	811.24	1.554
308.15 K, x1 = 0.3	819.16	1.389
308.15 K, x1 = 0.4	826.03	1.307
308.15 K, x1 = 0.5	832	1.246
308.15 K, x1 = 0.5999	837.24	1.21
308.15 K, x1 = 0.6999	841.91	1.186
308.15 K, x1 = 0.7999	846.14	1.179
308.15 K, x1 = 0.9	850.03	1.184
308.15 K, x1 = 1	853.68	1.2
313.15 K, x1 = 0.1001	797.55	1.642
313.15 K, x1 = 0.1999	807.02	1.399
313.15 K, x1 = 0.3	814.88	1.264
313.15 K, x1 = 0.4	821.71	1.196
313.15 K, x1 = 0.5	827.66	1.148
313.15 K, x1 = 0.5999	832.89	1.119
313.15 K, x1 = 0.6999	837.56	1.1
313.15 K, x1 = 0.7999	841.8	1.096
313.15 K, x1 = 0.9	845.7	1.103
313.15 K, x1 = 1	849.37	1.118
318.15 K, x1 = 0.1001	793.38	1.453
318.15 K, x1 = 0.1999	802.76	1.254
318.15 K, x1 = 0.3	810.56	1.144
318.15 K, x1 = 0.4	817.36	1.089
318.15 K, x1 = 0.5	823.29	1.05
318.15 K, x1 = 0.5999	828.51	1.027
318.15 K, x1 = 0.6999	833.19	1.013
318.15 K, x1 = 0.7999	837.45	1.012
318.15 K, x1 = 0.9	841.37	1.02
318.15 K, x1 = 1	845.06	1.035
323.15 K, x1 = 0.1001	789.15	1.308
323.15 K, x1 = 0.1999	798.46	1.144
323.15 K, x1 = 0.3	806.21	1.052
323.15 K, x1 = 0.4	812.99	1.006
323.15 K, x1 = 0.5	818.9	0.975
323.15 K, x1 = 0.5999	824.13	0.9556
323.15 K, x1 = 0.6999	828.81	0.9463
323.15 K, x1 = 0.7999	833.08	0.9462
323.15 K, x1 = 0.9	837.02	0.9546
323.15 K, x1 = 1	840.74	0.9708
